From patent US8192962B2, “Processes for detecting toxic substances” (Daikin Industries, Ltd., priority 2001, dated 2012)

Test system: Mitochondria-located protein genes
Assay: DNA chip mRNA expression in yeast, mitochondria-located protein genes (Table 2)
Assay type: cell-based, Saccharomyces cerevisiae S288C
Settings: cells incubated two hours with the chemical substance
In short: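 Measured as treated-to-untreated fluorescence ratio on a full-genome yeast DNA chip. Cells (S288C, YPD, 25° C.) were exposed in log phase for two hours to one chemical, dosed to curb growth without killing.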

Measured: The level of expressed mRNA in the presence of chemical substance/The level of expressed mRNA in the absence of chemical substance

S=C([S-])NCCNC(=S)[S-].[Zn+2] [(11), zinc N,N′-ethylenebis(dithiocarbamate)]
1.4: yeast gene YDL067C | yeast gene YDR377W | yeast gene YJL166W | yeast gene YJL180C | yeast gene YJR045C
1.3: yeast gene YBR003W | yeast gene YDR079W | yeast gene YDR231C | yeast gene YGR082W | yeast gene YGR174C | yeast gene YIL155C
1.2: yeast gene YBR122C | yeast gene YBR185C | yeast gene YBR221C | yeast gene YDR298C | yeast gene YFL016C | yeast gene YJL096W | yeast gene YJL133W
1.5: yeast gene YBR251W | yeast gene YCR046C
1.7: yeast gene YDR258C | yeast gene YEL039C | yeast gene YGR076C
1.8: yeast gene YCR083W | yeast gene YGR244C
2.0: yeast gene YDR178W
0.7: yeast gene YBL038W | yeast gene YBR091C | yeast gene YGL187C | yeast gene YJL102W
2.1: yeast gene YBL099W | yeast gene YHR008C
0.9: yeast gene YBR282W | yeast gene YEL024W
2.5: yeast gene YDL198C | yeast gene YER178W
0.8: yeast gene YDL181W | yeast gene YDR347W | yeast gene YDR529C
1.6: yeast gene YCL057W | yeast gene YGL191W | yeast gene YGR062C | yeast gene YJR077C
2.6: yeast gene YGR008C
1.1: yeast gene YAL039C | yeast gene YBL022C | yeast gene YBL030C | yeast gene YBR044C | yeast gene YGL018C | yeast gene YGR028W
